We go through 30 compounds from patent US10472364B2 (Calithera Biosciences, Inc., priority 2016, dated 2019).

Structures are written as SMILES. Where only a bound is given, the exact number is not on record here.

Sequence of endogenous, cell-bound CD73 on SK-MEL-28 cells (P21589 27-574): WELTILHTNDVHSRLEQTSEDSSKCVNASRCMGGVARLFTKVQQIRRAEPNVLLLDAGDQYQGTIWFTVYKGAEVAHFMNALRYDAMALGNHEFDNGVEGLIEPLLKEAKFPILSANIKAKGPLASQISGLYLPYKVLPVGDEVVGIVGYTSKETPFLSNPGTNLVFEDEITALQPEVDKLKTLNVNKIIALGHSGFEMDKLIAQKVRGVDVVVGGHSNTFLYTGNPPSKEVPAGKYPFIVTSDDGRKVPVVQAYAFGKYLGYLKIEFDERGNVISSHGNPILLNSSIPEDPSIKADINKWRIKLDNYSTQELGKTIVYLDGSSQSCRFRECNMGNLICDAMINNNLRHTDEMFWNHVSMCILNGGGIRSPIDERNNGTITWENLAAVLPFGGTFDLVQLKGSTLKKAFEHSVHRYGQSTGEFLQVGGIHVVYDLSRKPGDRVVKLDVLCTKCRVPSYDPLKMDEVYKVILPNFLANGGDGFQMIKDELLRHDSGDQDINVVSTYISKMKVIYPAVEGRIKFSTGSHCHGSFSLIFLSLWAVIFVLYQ

This assay has as its target endogenous, cell-bound CD73 on SK-MEL-28 cells (Homo sapiens (Human), UniProt P21589). The assay is described as follows: Inhibition of endogenous, cell-bound CD73 enzyme activity in SK-MEL-28 cells (Malachite Green). Type of assay: cell-based. As to conditions: 100 μM AMP, 30 minutes at room temperature. On the procedure:
The day before the experiment, 5000 cells were plated per well in a 96-well plate. Cells were washed twice with […] reaction buffer (20 mM HEPES, pH 7.4, 125 mM NaCl, 1 mM KCl, 2 mM MgCl2, 10 mM glucose) to remove residual inorganic phosphate. After washing, assays contained serial dilutions of test compounds and 100 μM of AMP in a total volume of 200 μL reaction buffer, with a final DMSO concentration≤0.5%. After 30 minutes at room temperature, supernatant was removed from the cells. […] The concentration of inorganic phosphate was determined using a phosphate standard curve to determine IC50.
The compound `Nc1nc(Cl)nc2c1ncn2[C@@H]1O[C@H](COC(Cc2csc(C(=O)O)c2)(C(=O)O)C(=O)O)[C@@H](O)[C@@H]1F` [compound 76, 2-(((2R,3R,4S,5R)-5-(6-amino-2-chloro-9H-purin-9-yl)-4-fluoro-3-hydroxytetrahydro-furan-2-yl)methoxy)-2-((5-carboxythiophen-3-yl)methyl)malonic acid] showed a half-maximal inhibitory concentration (IC50) of 305 nM.
Consider `CNC(=O)C(OC[C@H]1O[C@@H](n2cnc3c(N)nc(Cl)nc32)[C@@H](F)[C@@H]1O)P(=O)(O)O` (stereo partly drawn) [compound 29, (1-(((2R,3R,4S,5R)-5-(6-amino-2-chloro-9H-purin-9-yl)-4-fluoro-3-hydroxytetrahydrofuran-2-yl)methoxy)-2-(methylamino)-2-oxoethyl)phosphonic acid], for which the IC50 was 5720 nM.
As to `Nc1nc(Cl)nc2c1ncn2[C@@H]1O[C@H](COC(Cc2csc(C(=O)O)n2)(C(=O)O)C(=O)O)[C@@H](O)[C@@H]1F` [compound 68, 2-(((2R,3R,4S,5R)-5-(6-amino-2-chloro-9H-purin-9-yl)-4-fluoro-3-hydroxytetrahydro-furan-2-yl)methoxy)-2-((2-carboxythiazol-4-yl)methyl)malonic acid], it took 924 nM to reach half-maximal inhibition (IC50).
For `Nc1nc(Cl)nc2c1ncn2[C@@H]1O[C@H](COC(Cc2cccc(F)c2)(C(=O)O)C(=O)O)[C@@H](O)[C@@H]1F` [compound 44], the 50% inhibitory concentration (IC50) turned out to be 1010 nM.
The result for `CCOC(=O)C(Cc1ccc(OC(F)(F)F)cc1)(OC[C@H]1O[C@@H](n2cnc3c(N)nc(Cl)nc32)[C@@H](F)[C@@H]1O)C(=O)O` (single isomer, unassigned) [compound 38] reads 1480 nM; that for `Nc1nc(Cl)nc2c1ncn2[C@@H]1O[C@H](COC(Cc2ccccc2)(C(=O)O)C(=O)O)[C@@H](O)[C@@H]1F` [compound 6, 2-(((2R,3R,4S,5R)-5-(6-amino-2-chloro-9H-purin-9-yl)-4-fluoro-3-hydroxytetrahydro-furan-2-yl)methoxy)-2-benzylmalonic acid], 489 nM.
With `N#Cc1cccc(CC(OC[C@H]2O[C@@H](n3cnc4c(N)nc(Cl)nc43)[C@@H](F)[C@@H]2O)(C(=O)O)C(=O)O)c1` [compound 35], the half-maximal inhibitory concentration (IC50) was found to be 261 nM. Against the preceding compound, the IC50 is about 1.9-fold lower.
For `Nc1nc(Cl)nc2c1ncn2[C@@H]1O[C@H](COC(Cc2cnc(C(=O)O)s2)(C(=O)O)C(=O)O)[C@@H](O)[C@@H]1F` [compound 67, 2-(((2R,3R,4S,5R)-5-(6-amino-2-chloro-9H-purin-9-yl)-4-fluoro-3-hydroxytetrahydro-furan-2-yl)methoxy)-2-((2-carboxythiazol-5-yl)methyl)malonic acid] the value was 1310 nM; for `Nc1nc(Cl)nc2c1ncn2[C@@H]1O[C@H](COC(Cc2ccc(CO)cc2)(C(=O)O)C(=O)O)[C@@H](O)[C@@H]1F` [compound 39], 493 nM.
Regarding `Nc1nc(Cl)nc2c1ncn2[C@@H]1O[C@H](COC(Cc2cnn(Cc3ccccc3)c2)(C(=O)O)C(=O)O)[C@@H](O)[C@@H]1F` [compound 63, 2-(((2R,3R,4S,5R)-5-(6-amino-2-chloro-9H-purin-9-yl)-4-fluoro-3-hydroxytetrahydro-furan-2-yl)methoxy)-2-((1-benzyl-1H-pyrazol-4-yl)methyl)malonic acid], half-maximal inhibition (IC50) was put at 2010 nM.
For `COc1cccc(CC(OC[C@H]2O[C@@H](n3cnc4c(N)nc(Cl)nc43)[C@@H](F)[C@@H]2O)(C(=O)O)C(=O)O)c1` [compound 49] the value was 2380 nM; for `Nc1nc(Cl)nc2c1ncn2[C@@H]1O[C@H](COC(Cc2cn[nH]c2)(C(=O)O)C(=O)O)[C@@H](O)[C@@H]1F` [compound 64, 2-((1H-pyrazol-4-yl)methyl)-2-(((2R,3R,4S,5R)-5-(6-amino-2-chloro-9H-purin-9-yl)-4-fluoro-3-hydroxytetrahydrofuran-2-yl)methoxy)malonic acid], 588 nM; for `Nc1cccc(CC(OC[C@H]2O[C@@H](n3cnc4c(N)nc(Cl)nc43)[C@@H](F)[C@@H]2O)(C(=O)O)C(=O)O)c1` [compound 27], 886 nM.
`Nc1nc(Cl)nc2c1ncn2[C@@H]1O[C@H](COC(Cc2ccccc2)(C(=O)O)C(=O)O)[C@@H](O)[C@H]1N` [compound 55, 2-(((2R,3S,4R,5R)-4-amino-5-(6-amino-2-chloro-9H-purin-9-yl)-3-hydroxytetrahydrofuran-2-yl)methoxy)-2-benzylmalonic acid] showed an IC50 of more than 50000 nM.
For the compound `Nc1nc(Cl)nc2c1ncn2[C@@H]1O[C@H](COC(Cc2cccc(OC(F)(F)F)c2)(C(=O)O)C(=O)O)[C@@H](O)[C@@H]1F` [compound 15, 2-(((2R,3R,4S,5R)-5-(6-amino-2-chloro-9H-purin-9-yl)-4-fluoro-3-hydroxytetrahydrofuran-2-yl)methoxy)-2-(3-(trifluoromethoxy)benzyl)malonic acid], the IC50 is 1580 nM. This lies in the single-digit micromolar range.
`Nc1nc(Cl)nc2c1ncn2[C@@H]1O[C@H](COC(Cc2ccc(Cl)nc2)(C(=O)O)C(=O)O)[C@@H](O)[C@@H]1F` [compound 8, 2-(((2R,3R,4S,5R)-5-(6-amino-2-chloro-9H-purin-9-yl)-4-fluoro-3-hydroxytetrahydro-furan-2-yl)methoxy)-2-((6-chloropyridin-3-yl)methyl)malonic acid] had a concentration for half-maximal inhibition (IC50) of 772 nM.
Turning to `Nc1nc(Cl)nc2c1ncn2[C@@H]1O[C@H](COC(Cc2ccc(F)cc2)(C(=O)O)C(=O)O)[C@@H](O)[C@@H]1F` [compound 47], it took 669 nM to reach half-maximal inhibition (IC50).
In turn, `CS(=O)(=O)c1ccc(CC(OC[C@H]2O[C@@H](n3cnc4c(N)nc(Cl)nc43)[C@@H](F)[C@@H]2O)(C(=O)O)C(=O)O)cc1` [compound 21, 2-(((2R,3R,4S,5R)-5-(6-amino-2-chloro-9H-purin-9-yl)-4-fluoro-3-hydroxytetrahydrofuran-2-yl)methoxy)-2-(4-(methylsulfonyl)benzyl)malonic acid] yielded a concentration for half-maximal inhibition (IC50) of 510 nM.
Regarding `Nc1nc(Cl)nc2c1ncn2[C@@H]1O[C@H](COC(Cc2nnn[nH]2)(C(=O)O)C(=O)O)[C@@H](O)[C@@H]1F` [compound 50, 2-((1H-tetrazol-5-yl)methyl)-2-(((2R,3R,4S,5R)-5-(6-amino-2-chloro-9H-purin-9-yl)-4-fluoro-3-hydroxytetrahydrofuran-2-yl)methoxy)malonic acid], the IC50 was 6370 nM.
`COc1ccc(CC(OC[C@H]2O[C@@H](n3cnc4c(N)nc(Cl)nc43)[C@@H](F)[C@@H]2O)(C(=O)O)C(=O)O)cc1Cl` [compound 85, 2-(((2R,3R,4S,5R)-5-(6-amino-2-chloro-9H-purin-9-yl)-4-fluoro-3-hydroxytetrahydrofuran-2-yl)methoxy)-2-(3-chloro-4-methoxybenzyl)malonic acid] displayed a 50% inhibitory concentration (IC50) of 1370 nM.
For `Nc1nc(Cl)nc2c1ncn2[C@@H]1O[C@H](COC(Cc2ccc(-c3nnn[nH]3)cc2)(C(=O)O)C(=O)O)[C@@H](O)[C@@H]1F` [compound 54, 2-(4-(1H-tetrazol-5-yl)benzyl)-2-(((2R,3R,4S,5R)-5-(6-amino-2-chloro-9H-purin-9-yl)-4-fluoro-3-hydroxytetrahydro-furan-2-yl)methoxy)malonic acid], the half-maximal inhibitory concentration (IC50) was 973 nM.
For `N#CCC(OC[C@H]1O[C@@H](n2cnc3c(N)nc(Cl)nc32)[C@@H](F)[C@@H]1O)(C(=O)O)C(=O)O` [compound 33, 2-(((2R,3R,4S,5R)-5-(6-amino-2-chloro-9H-purin-9-yl)-4-fluoro-3-hydroxytetrahydrofuran-2-yl)methoxy)-2-(cyanomethyl)malonic acid] the value was 3380 nM; for `Nc1nc(Cl)nc2c1ncn2[C@@H]1O[C@H](COC(Cc2ccc(OC(F)(F)F)cc2)(C(=O)O)C(=O)O)[C@@H](O)[C@@H]1F` [compound 36], 197 nM.
`Nc1nc(Cl)nc2c1ncn2[C@@H]1O[C@H](COC(Cc2cccc(C(=O)O)c2)(C(=O)O)C(=O)O)[C@@H](O)[C@@H]1F` [compound 42] came in with an IC50 of 887 nM.
For the compound `Nc1nc(Cl)nc2c1ncn2[C@@H]1O[C@H](COC(Cc2ccc(C(F)(F)F)o2)(C(=O)O)C(=O)O)[C@@H](O)[C@@H]1F` [compound 59, 2-(((2R,3R,4S,5R)-5-(6-amino-2-chloro-9H-purin-9-yl)-4-fluoro-3-hydroxytetrahydro-furan-2-yl)methoxy)-2-((5-(trifluoromethyl)-furan-2-yl)methyl)malonic acid], half-maximal inhibition (IC50) required 6980 nM.
For `Nc1nc(Cl)nc2c1ncn2[C@@H]1O[C@H](COC(Cc2ccc(C(F)(F)F)c(F)c2)(C(=O)O)C(=O)O)[C@@H](O)[C@@H]1F` [compound 60, 2-(((2R,3R,4S,5R)-5-(6-amino-2-chloro-9H-purin-9-yl)-4-fluoro-3-hydroxytetrahydro-furan-2-yl)methoxy)-2-(3-fluoro-4-(trifluoromethyl)benzyl)malonic acid] the value was 512 nM; for `COC(=O)C(Cc1ccc(-c2ccccc2)cc1)(OC[C@H]1O[C@@H](n2cnc3c(N)nc(Cl)nc32)[C@@H](F)[C@@H]1O)C(=O)O` (single isomer, unassigned) [compound 81], 2110 nM; for `Nc1nc(Cl)nc2c1ncn2[C@@H]1O[C@H](COC(Cc2ccccc2)(C(=O)O)C(=O)O)[C@@H](N)[C@H]1O` [compound 51, 2-(((2S,3S,4R,5R)-3-amino-5-(6-amino-2-chloro-9H-purin-9-yl)-4-hydroxytetrahydrofuran-2-yl)methoxy)-2-benzylmalonic acid], 4340 nM.
`COC(=O)C(Cc1ccc(-c2ccccc2)cc1)(OC[C@H]1O[C@@H](n2cnc3c(N)nc(Cl)nc32)[C@@H](F)[C@@H]1O)C(=O)O` (single isomer, unassigned) [compound 82]: the half-maximal inhibitory concentration (IC50) is 4120 nM.
The compound `N#Cc1cccc(CC(OC[C@H]2O[C@@H](n3cnc4c(N)nc(N=[N+]=[N-])nc43)[C@@H](F)[C@@H]2O)(C(=O)O)C(=O)O)c1` [compound 40, 2-(((2R,3R,4S,5R)-5-(6-amino-2-azido-9H-purin-9-yl)-4-fluoro-3-hydroxytetrahydrofuran-2-yl)methoxy)-2-(3-cyanobenzyl)malonic acid] showed an IC50 of 2410 nM.
